Data as given in paper PMC9639207 (RSC Advances, 2022).

What was measured:
[1] = In vitro stability on incubation with mouse serum; format: in vitro ADME; settings: mouse, serum
[2] = target: dipeptidyl peptidase-IV (DPP-IV) (Homo sapiens, UniProt P27487); assay: In vitro proteolytic stability against DPP-IV; format: in vitro ADME; settings: isolated enzyme dpp iv, pH 7.4
dipeptidyl peptidase-IV (DPP-IV), sequence (P27487 whole entry, species assumed): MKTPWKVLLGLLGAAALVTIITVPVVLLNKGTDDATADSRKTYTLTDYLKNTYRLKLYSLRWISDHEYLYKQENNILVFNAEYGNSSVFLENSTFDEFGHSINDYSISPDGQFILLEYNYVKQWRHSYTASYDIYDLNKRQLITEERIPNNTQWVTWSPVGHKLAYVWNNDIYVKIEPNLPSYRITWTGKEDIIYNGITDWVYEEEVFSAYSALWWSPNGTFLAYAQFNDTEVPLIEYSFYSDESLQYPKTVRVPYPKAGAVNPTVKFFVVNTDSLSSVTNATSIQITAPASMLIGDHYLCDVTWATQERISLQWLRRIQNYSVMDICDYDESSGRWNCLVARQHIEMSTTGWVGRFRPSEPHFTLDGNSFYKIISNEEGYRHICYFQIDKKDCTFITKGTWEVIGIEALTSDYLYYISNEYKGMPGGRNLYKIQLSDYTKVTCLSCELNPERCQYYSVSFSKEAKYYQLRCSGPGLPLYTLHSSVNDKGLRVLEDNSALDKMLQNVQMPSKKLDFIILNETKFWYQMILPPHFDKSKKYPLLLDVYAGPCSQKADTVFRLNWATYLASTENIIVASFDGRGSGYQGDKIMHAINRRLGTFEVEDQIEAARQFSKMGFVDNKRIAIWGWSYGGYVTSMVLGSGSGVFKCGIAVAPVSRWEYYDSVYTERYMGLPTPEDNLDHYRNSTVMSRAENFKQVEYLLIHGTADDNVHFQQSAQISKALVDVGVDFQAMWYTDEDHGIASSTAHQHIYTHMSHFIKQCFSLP

SMILES: CC[C@H](C)[C@H](NC(=O)[C@H](Cc1ccccc1)NC(=O)[C@H](CCC(=O)O)NC(=O)[C@H](CCCCN)NC(=O)[C@H](C)NC(=O)[C@H](C)NC(=O)[C@H](CCC(N)=O)NC(=O)CNC(=O)[C@H](CCC(=O)O)NC(=O)[C@H](CC(C)C)NC(=O)[C@H](Cc1ccc(O)cc1)NC(=O)[C@H](CO)NC(=O)[C@H](CO)NC(=O)[C@@H](NC(=O)[C@H](CC(=O)O)NC(=O)[C@H](CO)NC(=O)[C@@H](NC(=O)[C@H](Cc1ccccc1)NC(=O)[C@@H](NC(=O)CNC(=O)[C@H](CCC(=O)O)NC(=O)[C@H](C)NC(=O)[C@@H](N)Cc1c[nH]cn1)[C@@H](C)O)[C@@H](C)O)C(C)C)C(=O)N[C@@H](C)C(=O)N[C@@H](Cc1c[nH]c2ccccc12)C(=O)N[C@@H](CC(C)C)C(=O)N[C@H](C(=O)N[C@@H](CC(=O)N[C@@H]1O[C@H](CO)[C@@H](O[C@@H]2O[C@H](CO)[C@@H](O[C@@H]3O[C@H](CO[C@H]4O[C@H](CO)[C@@H](O)[C@H](O)[C@@H]4O[C@@H]4O[C@H](CO)[C@@H](O[C@@H]5O[C@H](CO)[C@H](O)[C@H](O)[C@H]5O)[C@H](O)[C@H]4NC(C)=O)[C@@H](O)[C@H](O[C@H]4O[C@H](CO)[C@@H](O)[C@H](O)[C@@H]4O[C@@H]4O[C@H](CO)[C@@H](O[C@@H]5O[C@H](CO)[C@H](O)[C@H](O)[C@H]5O)[C@H](O)[C@H]4NC(C)=O)[C@@H]3O)[C@H](O)[C@H]2NC(C)=O)[C@H](O)[C@H]1O)C(=O)NCC(=O)N[C@H](C(=O)NCC(=O)O)[C@@H](C)O)C(C)C [Glycan-GLP-1-5(G2)]
- half-life at 200 µM [1]: 6.51 ± 0.225 h
- half-life [2]: 3.0333 ± 0.00167 h

SMILES: CC[C@H](C)[C@H](NC(=O)[C@H](Cc1ccccc1)NC(=O)[C@H](CCC(=O)O)NC(=O)[C@H](CCCCN)NC(=O)[C@H](C)NC(=O)[C@H](C)NC(=O)[C@H](CCC(N)=O)NC(=O)CNC(=O)[C@H](CCC(=O)O)NC(=O)[C@H](CC(C)C)NC(=O)[C@H](Cc1ccc(O)cc1)NC(=O)[C@H](CO)NC(=O)[C@H](CO)NC(=O)[C@@H](NC(=O)[C@H](CC(=O)N[C@@H]1O[C@H](CO)[C@@H](O[C@@H]2O[C@H](CO)[C@@H](O[C@@H]3O[C@H](CO[C@H]4O[C@H](CO)[C@@H](O)[C@H](O)[C@@H]4O[C@@H]4O[C@H](CO)[C@@H](O[C@@H]5O[C@H](CO)[C@H](O)[C@H](O)[C@H]5O)[C@H](O)[C@H]4NC(C)=O)[C@@H](O)[C@H](O[C@H]4O[C@H](CO)[C@@H](O)[C@H](O)[C@@H]4O[C@@H]4O[C@H](CO)[C@@H](O[C@@H]5O[C@H](CO)[C@H](O)[C@H](O)[C@H]5O)[C@H](O)[C@H]4NC(C)=O)[C@@H]3O)[C@H](O)[C@H]2NC(C)=O)[C@H](O)[C@H]1O)NC(=O)[C@H](CO)NC(=O)[C@@H](NC(=O)[C@H](Cc1ccccc1)NC(=O)[C@@H](NC(=O)CNC(=O)[C@H](CCC(=O)O)NC(=O)[C@H](C)NC(=O)[C@@H](N)Cc1c[nH]cn1)[C@@H](C)O)[C@@H](C)O)C(C)C)C(=O)N[C@@H](C)C(=O)N[C@@H](Cc1c[nH]c2ccccc12)C(=O)N[C@@H](CC(C)C)C(=O)N[C@H](C(=O)N[C@@H](CCCCN)C(=O)NCC(=O)N[C@@H](CCCNC(=N)N)C(=O)NCC(=O)O)C(C)C [Glycan-GLP-1-1(G2)]
- half-life at 200 µM [1]: 5.92 ± 0.155 h
- half-life [2]: 0.818 ± 0.095 h

SMILES: CC[C@H](C)[C@H](NC(=O)[C@H](Cc1ccccc1)NC(=O)[C@H](CCC(=O)O)NC(=O)[C@H](CCCCN)NC(=O)[C@H](C)NC(=O)[C@H](C)NC(=O)[C@H](CCC(N)=O)NC(=O)CNC(=O)[C@H](CCC(=O)O)NC(=O)[C@H](CC(C)C)NC(=O)[C@H](Cc1ccc(O)cc1)NC(=O)[C@H](CO)NC(=O)[C@H](CO)NC(=O)[C@@H](NC(=O)[C@H](CC(=O)N[C@@H]1O[C@H](CO)[C@@H](O)[C@H](O)[C@H]1O)NC(=O)[C@H](CO)NC(=O)[C@@H](NC(=O)[C@H](Cc1ccccc1)NC(=O)[C@@H](NC(=O)CNC(=O)[C@H](CCC(=O)O)NC(=O)[C@H](C)NC(=O)[C@@H](N)Cc1c[nH]cn1)[C@@H](C)O)[C@@H](C)O)C(C)C)C(=O)N[C@@H](C)C(=O)N[C@@H](Cc1c[nH]c2ccccc12)C(=O)N[C@@H](CC(C)C)C(=O)N[C@H](C(=O)N[C@@H](CCCCN)C(=O)NCC(=O)N[C@@H](CCCNC(=N)N)C(=O)NCC(=O)O)C(C)C [Glc-GLP-1-1]
- half-life at 200 µM [1]: 1.57 ± 0.127 h
- half-life [2]: 0.503 ± 0.04 h
